Results: patent publication US6300321A, “Compounds, preparation and use for transferring nucleic acids into cells” (Aventis Pharma S.A., priority 1997, dated 2001)

Experiments:
[1] = test system: NIH3T3, HepG2 and HeLa cells; assay: In vitro transfection in the absence and in the presence of serum proteins; format: cell-based; conditions: with versus without serum proteins; FIG. 3
Method: FIG. 3: Measurement of the in vitro efficiency of transfection of compound 1 according to the invention into NIH3T3, HepG2 and HeLa cells, in the absence (white bars) and in the presence (black bars) of serum proteins and in comparison with its amine-containing homologue (RPR120535).
(§1) The measurements were carried out at different charge ratios which are plotted on the x-axis. The expression of luciferase is plotted on the y-axis and is expressed in RLU (Relative Light Unit) per well.
(§2) The nucleic acid used is the plasmid pXL2774 (WO 97/10343) comprising the gene encoding luciferase under the control of the human cytomegalovirus (CMV) promoter.
The nucleic acid solutions are diluted to 20 μg/ml in physiological saline (0.15 M sodium chloride NaCl). […]
The cells are washed with twice 500 μl of medium free of serum proteins and grown again either in serum-free medium (transfection in the absence of serum), or in complete medium (transfection in the presence of serum). […] When the cells are transfected in the absence of serum, the growth medium is supplemented 2 hours after transfection with the appropriate quantity of serum.
The transfection efficiency is evaluated 48 hours after the transfection by measuring the expression of luciferase according to the recommendations given for the use of the Promega kit [Luciferase Assay System]. […]

[2] = test system: HeLa cells; assay: In vitro transfection of luciferase plasmid pXL2774; format: cell-based
Method: (§3) FIG. 2: Measurement of the in vitro efficiency of transfection of compound 1 according to the invention into NIH3T3, HepG2 and HeLa cells, in the absence of serum proteins and in comparison with its amine-containing homologue (RPR120535).
as §1, §2
(§4) The nucleic acid solutions are diluted to 20 μg/ml in physiological saline (0.15 M sodium chloride NaCl).
(§5) The products described in the invention are dissolved in water at a concentration varying from 60 to 240 μM and mixed volume for volume with the DNA solution; the final saline concentration is 75 mM.
(§6) The cells are cultured under appropriate conditions in 24-well microplates (2 cm^2 /well) and are transfected while they are in the exponential growth phase and at 50-70% confluence.
(§7) The cells are washed with twice 500 μl of medium free of serum proteins and grown again either in serum-free medium (transfection in the absence of serum), or in complete medium (transfection in the presence of serum). 50 μl of transfectant mixture [i.e. 0.5 μg DNA/well] are added to the cells [3 wells/condition DNA vector]. When the cells are transfected in the absence of serum, the growth medium is supplemented 2 hours after transfection with the appropriate quantity of serum.
(§8) The transfection efficiency is evaluated 48 hours after the transfection by measuring the expression of luciferase according to the recommendations given for the use of the Promega kit [Luciferase Assay System]. The toxicity of the transfectant mixtures is estimated by a measurement of the protein concentrations in the cell lysates.
(§9) Compound 1 was used in comparison with the cationic lipid RPR120535 (TFA salt) [described in patent application WO 97/18185 incorporated into the present application by way of reference] as DNA vector to transfect three different cell lines: NIH3T3 cells, HepG2 cells and HeLa cells. […] The transfection efficiency for compound 1 and for the cationic lipid for comparison in the three cell types is represented in FIG. 2, for nmol of compound/μg of DNA ratios of between 3 and 12.

[3] = test system: HepG2 cells; assay: as above; format: cell-based
Method: as §3, §1, §2, §4, §5, §6, §7, §8, §9

[4] = test system: NIH3T3 cells; assay: as above; format: cell-based; conditions: FIG. 2, absence of serum proteins, 48 hours
Method: as §3, §1, §2, §4, §5, §6, §7, §8, §9

[5] = test system: HeLa cells; assay: Toxicity of the transfectant mixtures (protein concentrations in the cell lysates); format: cell-based
Method: as §6, §7, §8, §9

[6] = test system: HepG2 cells; assay: as above; format: cell-based
Method: as §6, §7, §8, §9

[7] = test system: NIH3T3 cells; assay: as above; format: cell-based
Method: as §6, §7, §8, §9

[8] = test system: DNA; assay: Physicochemical phase (A, B or C) of the nucleolipid complexes as a function of the charge ratio; conditions: micellar form and in combination with a neutral colipid (DOPE and cholesterol)
Method: FIG. 8: Tables indicating the physicochemical phase (phase A, B or C) in which exist the nucleolipid complexes formed with compound 2 in comparison with its amine-containing analogue, as a function of the charge ratio.
The determination of the phases was carried out for compound 2 and for its amine-containing homologue in micellar form and in combination with a neutral colipid (DOPE and cholesterol).
The nucleic acid used is the plasmid pXL3031, as described in the preceding example.
The complexes are prepared at concentrations of 0.25 mg of DNA/ml with an appropriate quantity of lipid as defined in the present invention in the desired charge ratio. The complex is prepared in a medium containing 5% glucose and a 20 mM solution of sodium chloride. 50 μl of nucleolipid complex are then diluted 20-fold in 950 μl of solution containing 5% glucose and a 20 mM solution of sodium chloride.
The size of the complexes was determined by measuring the hydrodynamic diameter by dynamic light scattering with the aid of a Coulter N4+ apparatus.
The complexes formed are negatively charged overall, which makes the crossing of cell membranes difficult. It is thus preferable for the values not to be situated in this region in order to transfect the DNA.
Phase B for which the DNA is completely saturated with the cationic lipid and the complexes are neutral or slightly positive overall. The ionic repulsions being […], this phase is unstable. A phenomenon of "cross-linking" may occur, leading to precipitation of the complexes. The complexes in this state cannot therefore be used as injection.
Phase C for which the DNA is oversaturated with the lipid and the complexes are therefore positive overall. […] The complexes in phase C are therefore particularly suitable for use for the transfer of nucleic acids into cells.
The tables in FIGS. 8, 9, 10 and 11 compare the phases as a function of the charge ratios between the compounds of the invention and their amine-containing analogues, that is to say the cationic lipids whose amidine or guanidine function is replaced by an amino function. It is observed that phase B is shifted towards much lower charge ratios. Thus, the incorporation of amidine functions into the cationic head contributes to the increase in the affinity of the compounds for DNA. This constitutes an important property of the compounds of the invention because the complexes which they form with DNA may be used in phase C without as a result being at excessively high charge ratios, with the beneficial effects which result therefrom on toxicity.

[9] = FIG. 2, absence of serum proteins, 48 hours

## CCCCCCCCCCCCCCCCCCN(CCCCCCCCCCCCCCCCCC)C(=O)CNC(=O)CNCCCNCCCCNCCCN [RPR120535, reference compound]
[1]
  transfection levels with or without serum proteins: a strong inhibition is observed due to the presence of the serum proteins

## CCCCCCCCCCCCCCCCCCN(CCCCCCCCCCCCCCCCCC)C(=O)CNC(=O)CNCCCNCCCCNCCCNC(=N)N [compound 1, N-dioctadecylcarbamoylmethyl-2-{3-[4-(3-guanidinopropylamino)butylamino]propylamino}acetamide]
[2]; [9]
  ratio of cationic lipid to DNA giving the maximum transfection efficiency: 9 nanomoles cationic lipid/μg of DNA
[2]; absence of serum
  luciferase expression level relative to the product tested in comparison (RPR120535): 2 to 4 times higher
[3]; [9]
  ratio of cationic lipid to DNA giving the maximum transfection efficiency: 9 nanomoles cationic lipid/μg of DNA
[3]; absence of serum
  luciferase expression level relative to the product tested in comparison (RPR120535): 2 to 4 times higher
[4]
  ratio of cationic lipid to DNA giving the maximum transfection efficiency: 6 nanomoles cationic lipid/μg of DNA
[5]
  toxicity of the transfectant mixture: no significant toxicity was detected
[6]
  toxicity of the transfectant mixture: no significant toxicity was detected
[7]
  toxicity of the transfectant mixture: no significant toxicity was detected
[1]
  transfection levels with or without serum proteins: the transfection levels with or without serum proteins are the same

## CCCCCCCCCCCCCCCCCCN(CCCCCCCCCCCCCCCCCC)C(=O)CNCCN(CCNC(=N)N)CCNC(=N)N [compound 2, 2-{2-[bis(2-guanidinoethyl)amino]ethylamino}-N,N-dioctadecylacetamide]
[8]
  shift of the unstable phase B in comparison with the amine-containing analogue: a shift is observed from the unstable phase B towards lower charge ratios

## CCCCCCCCCCCCCCN(CCCCCCCCCCCCCC)C(=O)CNC(=O)CNCCCNCCCCNCCCNC(=N)N [compound 3, N-ditetradecylcarbamoylmethyl-2-{3-[4-(3-guanidinopropylamino)butylamino]propylamino}acetamide]
[8]
  shift of the unstable phase B in comparison with the amine-containing analogue: a shift is observed from the unstable phase B towards lower charge ratios

## CCCCCCCCCCCCCCN(CCCCCCCCCCCCCC)C(=O)CNC(=O)CN(CCCCNCCCNC(=N)N)CCCNC(=N)N [compound 5, N-ditetradecylcarbamoylmethyl-2-{(3-guanidinopropyl)-[4-(3-guanidinopropylamino)butyl]amino}acetamide]
[8]
  shift of the unstable phase B in comparison with the amine-containing analogue: a shift is observed from the unstable phase B towards lower charge ratios

## CCCCCCCCCCCCCCN(CCCCCCCCCCCCCC)C(=O)CNC(=O)CNCCCN(CCCCN(CCCNC(=N)N)CCCNC(=N)N)CCCNC(=N)N [compound 6, 2-{3-[{4-[bis(3-guanidinopropyl)amino]butyl}-(3-guanidinopropyl)amino]-propylamino}-N-ditetradecylcarbamoylmethylacetamide]
[8]
  shift of the unstable phase B in comparison with the amine-containing analogue: a shift is observed from the nstable phase B towards lower charge ratios
